{
  "source": "paper PMC4004266",
  "about": "“Understanding the Structural Requirements for Activators of the Kef Bacterial Potassium Efflux System” (Biochemistry, 2014)",
  "key": {"SdKef": {"system": "SdKef", "assay": "Whole cell potassium efflux assay", "format": "cell-based, Shewanella denitrificans OS217", "conditions": "for K+ efflux (activation of Kef): E. coli MJF335 transformed with wild-type SdKef, grown with GSH, electrophile 0.5 mM", "method": "Potassium efflux experiments were performed as described previously.[7] Potassium efflux was measured, using an ion selective potassium electrode (ELIT 8031, Nico2000) and a lithium acetate reference electrode (ELIT 003n) with a four-channel ion analyzer (ELIT4), in 2 s intervals. Freshly transformed cells [either E. coli MJF335 cells lacking KefB, KefC, and GshA or MJF645 cells (lacking KefF and KefG in addition to KefB, KefC, and GshA)] were cultured in K115 minimal medium, containing 1 mM GSH, at 37 °C to an OD650 of ∼0.8–1.[11] The cells were filtered and washed with K10 buffer before being suspended in 5 mL of potassium-free K0 buffer. The cells were added to 30 mL of K0 medium in a stirred vessel held at 37 °C with equilibrated electrodes inserted. After 5 min, the electrophile was added to a final concentration of 0.5 mM [except for methylglyoxal (MG), which was added at a concentration of 0.8 mM[6]]. Rate constants were obtained by fitting exponentials to the change in potassium concentration after addition of the electrophile using Origin version 8.0 (Originlab).[7]"}, "SdKefQCTD [1]": {"molecular_target": "T1, SdKefQCTD (Shewanella denitrificans, UniProt Q12SB3)", "T1 sequence (Q12SB3 entry or part of it)": "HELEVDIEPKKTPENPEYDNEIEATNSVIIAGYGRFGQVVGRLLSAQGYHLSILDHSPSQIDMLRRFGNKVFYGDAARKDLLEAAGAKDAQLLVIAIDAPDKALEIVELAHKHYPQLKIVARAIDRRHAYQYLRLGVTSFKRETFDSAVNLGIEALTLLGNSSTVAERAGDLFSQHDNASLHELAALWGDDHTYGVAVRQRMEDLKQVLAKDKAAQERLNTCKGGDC", "assay": "Qualitative fluorescence competition assay with DNGSH (FB:FL ratio)", "format": "binding, Shewanella denitrificans OS217", "conditions": "1 mM competing ligand, 6 μM SdKefQCTD, 5 μM DNGSH, 525 nm"}, "SdKefQCTD [2]": {"molecular_target": "T1, SdKefQCTD", "assay": "Differential scanning fluorimetry (DSF)", "format": "binding, Shewanella denitrificans OS217", "conditions": "1 mM ligand, relative to protein alone"}, "SdKefQCTD [3]": {"molecular_target": "T1, SdKefQCTD", "assay": "Isothermal titration calorimetry (ITC)", "format": "binding, Shewanella denitrificans OS217", "conditions": "for no. of sites (n): sites per subunit"}, "SdKefQCTD [4]": {"molecular_target": "T1, SdKefQCTD", "assay": "Quantitative fluorescence competition experiment using DNGSH as probe (emission peak)", "format": "binding, Shewanella denitrificans OS217", "conditions": "for no. of sites (n): competition with DNGSH, sites per subunit"}, "SdKefQCTD [5]": {"molecular_target": "T1, SdKefQCTD", "assay": "Direct titration of DNGSH, fluorescence emission peak position (λmax)", "format": "binding, Shewanella denitrificans OS217", "method": "(§1) Measurements were performed in buffer C, using a 100 μL cuvette with 3 mm excitation and emission path lengths (Hellma GmbH & Co.) at 20 °C and an Edinburgh Instruments FLS920 spectrometer. Samples containing SdKefQCTD and DNGSH were excited at 340 nm, and emission spectra were measured from 395 to 670 nm. The steady state fluorescence anisotropy was measured with excitation at 340 nm and emission between 540 and 560 nm. Competition experiments were performed using samples pretreated with excess DNGSH, at a 2× protein concentration, and titrated with the ligand under study.\nThe data were fit using a standard saturation isotherm (see the Supporting Information for further information). For DNGSH fluorescence, λL was measured directly and found to be 572.5 nm. Inverse titrations with high SdKefQCTD concentrations allowed a good estimation of the emission maximum for the bound form (λML) as 530 nm with a quantum yield (Q) of 4. These three parameters were kept fixed during the fitting while Kd and n were optimized. […]\n(§2) Analysis of ligand binding by fluorescence spectroscopy. […]\n(§3) The conservation of mass for SdKefQCTD is given by n[M]0 = [M] + [ML] where the total concentration of SdKefQCTD subunits is [M]0, n is the number of active binding sites per M, [L]0 is the total concentration of ligand and the concentration of free ligand is [L]. […] If these expressions are substituted into equation 1, a quadratic equation for the protein-ligand complex [ML] is obtained that can be solved for [ML] and expressed as the fraction of bound ligand, fB (equation 2). […]\nTwo fluorescence parameters were used to obtain fB from experimental data. The peak position in the emission spectrum, λmax, was obtained by fitting a skewed Gaussian to the experimental spectra as described earlier (1). λmax was used as it was less easily disturbed than fluorescence intensity. Secondly, steady state fluorescence anisotropy, robs, was used. […]\nsums depending on the fluorescence intensity of the bound and free ligand, IML and […]"}, "SdKefQCTD [6]": {"molecular_target": "T1, SdKefQCTD", "assay": "Steady state fluorescence anisotropy titration of DNGSH", "format": "binding, Shewanella denitrificans OS217", "method": "as §1\nThe data were fit using a standard saturation isotherm (see the Supporting Information for further information). For DNGSH fluorescence, λL was measured directly and found to be 572.5 nm. […]\nas §2, §3\nTwo fluorescence parameters were used to obtain fB from experimental data. […]"}, "SdKefQCTD Q419K mutant": {"system": "SdKefQCTD Q419K mutant", "assay": "DNGSH titration to Q419K mutant (background binding), emission peak", "set-up": "species or system Shewanella denitrificans OS217", "conditions": "titration of DNGSH to 7 μM SdKefQCTD Q419K"}, "[7]": {"molecular_target": "SdKefQCTD (soluble construct of the cytosolic regulatory domain of Kef from Shewanella denitrificans OS217, including the Q-linker) (Shewanella denitrificans OS217)", "assay": "static multiangle light scattering; purified SdKefQCTD in solution; unpublished observations of the authors; 52.0 ± 2.5 kDa particles against 26.4 kDa per monomer"}, "[8]": {"conditions": "ITC, 25 °C, one-site model, read-out: Kd"}, "[9]": {"conditions": "emission peak, competition with DNGSH (Kd 6 μM used for DNGSH)"}},
  "note": "Several values for one entry are separate records, joined by “and”; a condition that tells them apart may be missing. Equal values may be shown once. Entries after “also recorded” stand apart in the source; their conditions may differ.",
  "data": [
    {"molecule": "N[C@@H](CCC(=O)N[C@@H](CSC1CCCC1=O)C(=O)NCC(=O)O)C(=O)O", "note": "(stereo partly shown) [Compound 9]", "values": [
      {"measurement": "K+ efflux (activation of Kef)", "setting": "SdKef", "result": "no activation of K^+ efflux"},
      {"measurement": "DNGSHbound:DNGSHligand ratio of fluorescence (FB:FL), Kef binding", "setting": "SdKefQCTD [1]", "result": "reduced binding affinity for Kef"}
    ]},
    {"molecule": "N[C@@H](CCC(=O)N[C@@H](CS)C(=O)NCC(=O)O)C(=O)O", "note": "[GSH, glutathione, reference compound]", "values": [
      {"measurement": "change in protein melting temperature (ΔTm)", "setting": "SdKefQCTD [2]", "result": "negligible change"},
      {"measurement": "DNGSHbound:DNGSHligand ratio of fluorescence (FB:FL), Kef binding", "setting": "SdKefQCTD [1]", "result": "low FB:FL ratios"},
      {"measurement": "ITC signal on titration", "setting": "SdKefQCTD [3]; could not be analyzed, data not shown", "result": "Only small signals"},
      {"measurement": "Kd", "setting": "SdKefQCTD [4]", "result": "900 ± 200", "unit": "µM"},
      {"measurement": "no. of sites (n)", "setting": "SdKefQCTD [4]; emission peak", "result": "0.83 ± 0.04"}
    ]},
    {"molecule": "O=C1C=CC(=O)N1C1CCCCC1", "note": "[Compound 17, N-cyclohexylmaleimide]", "values": [
      {"measurement": "K+ efflux (activation of Kef)", "setting": "SdKef", "result": "causes rapid K^+ efflux"}
    ]},
    {"molecule": "CN(C)c1cccc2c(S(=O)(=O)NCCCSC[C@H](NC(=O)CC[C@H](N)C(=O)O)C(=O)NCC(=O)O)cccc12", "note": "[DNGSH, S-{[5-(dimethylamino)naphthalen-1-yl]sulfonylaminopropyl} glutathione]", "values": [
      {"measurement": "Kd", "setting": "SdKefQCTD [5]", "result": "6 ± 2", "unit": "µM"},
      {"measurement": "Hill coefficient (nH)", "setting": "SdKefQCTD [5]; DNGSH binding", "result": 1},
      {"measurement": "no. of sites (n)", "setting": "SdKefQCTD [5]; emission peak, active binding sites per subunit", "result": "0.6 ± 0.2"},
      {"measurement": "Kd", "setting": "SdKefQCTD [3]", "result": "19 ± 6", "unit": "µM"},
      {"measurement": "no. of sites (n)", "setting": "SdKefQCTD [3]; ITC", "result": "0.7 ± 0.1 and 0.7 ± 0.2"},
      {"measurement": "Kd", "setting": "SdKefQCTD [6]", "result": "8 ± 2", "unit": "µM"},
      {"measurement": "no. of sites (n)", "setting": "SdKefQCTD [6]; fluorescence anisotropy, sites per subunit", "result": "1.1 ± 0.8"},
      {"measurement": "binding to Q419K mutant", "setting": "SdKefQCTD Q419K mutant", "result": "unable to bind"}
    ]},
    {"molecule": "SdKefQCTD (soluble construct of the cytosolic regulatory domain of Kef from Shewanella denitrificans OS217, including the Q-linker) (domain or fragment)", "values": [
      {"measurement": "stoichiometry N", "setting": "[7]", "result": 2, "unit": "subunits"}
    ]},
    {"molecule": "C=CC(=O)CCCCC", "note": "[Compound 22, 1-octen-3-one]", "values": [
      {"measurement": "K+ efflux (activation of Kef)", "setting": "SdKef", "result": "less effective at causing K^+ release; also recorded: causes little K^+ efflux"}
    ]},
    {"molecule": "O=C1C=CC(=O)N1Cc1ccccc1", "note": "[Compound 16]", "values": [
      {"measurement": "K+ efflux (activation of Kef)", "setting": "SdKef", "result": "caused significant K^+ release"}
    ]},
    {"molecule": "CCN1C(=O)CC(SCC(NC(=O)CCC(N)C(=O)O)C(=O)NCC(=O)O)C1=O", "note": "(stereo not shown) [ESG, N-ethylsuccinimido-S-glutathione, reference compound]", "values": [
      {"measurement": "DNGSHbound:DNGSHligand ratio of fluorescence (FB:FL), Kef binding", "setting": "SdKefQCTD [1]", "result": "high FB:FL ratios"},
      {"measurement": "Kd", "setting": "SdKefQCTD [3]; [8]", "result": "23 ± 4", "unit": "µM"},
      {"measurement": "no. of sites (n)", "setting": "SdKefQCTD [3]; ITC", "result": "0.38 ± 0.05"},
      {"measurement": "Kd", "setting": "SdKefQCTD [4]; [9]", "result": "12 ± 3", "unit": "µM"},
      {"measurement": "no. of sites (n)", "setting": "SdKefQCTD [4]; emission peak", "result": "0.7 ± 0.2"}
    ]},
    {"molecule": "CCCCCC(=O)CCSC[C@H](NC(=O)CC[C@H](N)C(=O)O)C(=O)NCC(=O)O", "note": "[Compound 12]", "values": [
      {"measurement": "Kd", "setting": "SdKefQCTD [4]; [9]", "result": "4.4 ± 0.5", "unit": "µM"},
      {"measurement": "no. of sites (n)", "setting": "SdKefQCTD [4]; emission peak", "result": "0.81 ± 0.05"}
    ]},
    {"molecule": "N[C@@H](CCC(=O)N[C@@H](CSC1CC(=O)CC1=O)C(=O)NCC(=O)O)C(=O)O", "note": "(stereo partly shown) [Compound 8]", "values": [
      {"measurement": "DNGSHbound:DNGSHligand ratio of fluorescence (FB:FL), Kef binding", "setting": "SdKefQCTD [1]", "result": "reduced binding affinity for Kef"}
    ]},
    {"molecule": "CCN1C(=O)C=CC1=O", "note": "[NEM, N-ethylmaleimide]", "values": [
      {"measurement": "rate constant for K+ efflux", "setting": "SdKef; SdKef expressed in E. coli strain lacking KefFC and KefGB (MJF645), after addition of electrophile", "result": "high rate constant for K^+ efflux"}
    ]},
    {"molecule": "CC(C)(C)N1C(=O)CC(SCC(NC(=O)CCC(N)C(=O)O)C(=O)NCC(=O)O)C1=O", "note": "(stereo not shown) [Compound 5, N-tert-butylsuccinimido-S-glutathione]", "values": [
      {"measurement": "change in protein melting temperature (ΔTm)", "setting": "SdKefQCTD [2]", "result": "greatest ΔTm"},
      {"measurement": "DNGSHbound:DNGSHligand ratio of fluorescence (FB:FL), Kef binding", "setting": "SdKefQCTD [1]", "result": "greatest Kef affinity"},
      {"measurement": "Kd", "setting": "SdKefQCTD [3]; [8]", "result": "6.7 ± 0.27", "unit": "µM"},
      {"measurement": "no. of sites (n)", "setting": "SdKefQCTD [3]; ITC", "result": "0.41 ± 0.04"},
      {"measurement": "Kd", "setting": "SdKefQCTD [4]; [9]", "result": "0.4 ± 0.2", "unit": "µM"},
      {"measurement": "no. of sites (n)", "setting": "SdKefQCTD [4]; emission peak", "result": "0.7 ± 0.2"}
    ]}
  ]
}
